Experimental data published in PMC8928484 (Journal of the American Chemical Society, 2022).
Like-named read-outs stand apart in the source and are kept apart here.

Key:
FEM1B [1] = target: T1, FEM1B (Mus musculus, UniProt Q9Z2G0); test: competitive fluorescence polarization with TAMRA-FNIP1 degron; assay type: binding
FEM1B [2] = target: T1, FEM1B; test: as above; assay type: binding; remark: listed apart in the source

T1 sequence (Q9Z2G0 whole entry): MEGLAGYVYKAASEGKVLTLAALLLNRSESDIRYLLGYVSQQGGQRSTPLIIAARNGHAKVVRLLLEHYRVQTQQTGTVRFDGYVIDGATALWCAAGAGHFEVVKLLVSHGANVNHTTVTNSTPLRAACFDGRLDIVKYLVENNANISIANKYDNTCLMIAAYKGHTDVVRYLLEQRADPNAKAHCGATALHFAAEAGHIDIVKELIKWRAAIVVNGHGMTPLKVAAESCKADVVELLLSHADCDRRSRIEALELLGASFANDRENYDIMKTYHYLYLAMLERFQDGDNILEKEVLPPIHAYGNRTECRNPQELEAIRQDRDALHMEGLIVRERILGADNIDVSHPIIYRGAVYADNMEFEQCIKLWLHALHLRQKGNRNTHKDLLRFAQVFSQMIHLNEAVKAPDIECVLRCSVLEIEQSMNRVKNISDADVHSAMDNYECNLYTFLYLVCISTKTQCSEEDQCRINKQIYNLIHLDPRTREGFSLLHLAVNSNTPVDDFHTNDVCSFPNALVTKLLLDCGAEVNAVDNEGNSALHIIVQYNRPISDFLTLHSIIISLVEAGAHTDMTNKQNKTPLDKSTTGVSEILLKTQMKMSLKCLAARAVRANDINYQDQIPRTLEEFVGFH

An IC50 (FEM1B [1]) of 1500 nM was found for NJH-1-106 in this work.

An IC50 (FEM1B [2]) of 670 nM was found for C#CCCCC(=O)N1CCOc2cc(N(CCC#N)C(=O)CCl)ccc21 [NJH-2-030] in this work.
